Results reported in US4981690A, “Liposome-incorporated mepartricin” (priority 1987, dated 1991).
Read-outs that look alike come from different tables or passages of the source.

Assays:
[1] = water, cited from earlier work
HTLV-III/LAV = details: H9 cells; Schaffner et al. 1986; cited from earlier work
human red blood cells = assay: Lysis of human red blood cells (hemoglobin release at 550 nm); format: cell-based; details: SLS present in F-SPA-222
Protocol: The human RBCs were incubated at 37° C. for 45 min. with ( X) free-SPA-222, (Δ) sodium lauryl sulfate, ( .circle. ) free SPA-160, ( .circle. ) liposomal SPA-160 (L-SPA-160) in liposomes composed of DMPC:DMPG (7:3), ( ) L-SPA-160 in liposomes composed of DMPC:DMPG+cholesterol (9:1) or ( ) L-SPA-160 in liposomes composed of DMPC:DMPG+ergosterol (9:1)
Lysis of human red blood cells (HRBCs) was quantitated by measuring the release of hemoglobin in the supernatants at 550 nm, as described previously (Mehta et al., Biochim. Biophys, Acta., Vol. 770, pp. 230-234 (1984)). Various doses of L-SPA were incubated with fresh washed human RBCs at 37° C. for 45 minutes,24 hr, 48 hr and 96 hr.
Lysis of HRBCs was quantitated by measuring the release of hemoglobin in the supernatants at 550 nm as previously described (Mehta et al., (1984) Biochem. Biophys. Acts, 770:230). Various doses of L-SPA-160 were incubated with fresh washed HRBCs at 37° C. for 45 minutes, 24, 48 and 96 hrs. Free-SPA-222, stock dissolved in water and diluted with isotonic PBS was added to the assay. F-SPA-160 as DMFA solution diluted with isotonic PBS was also used as a control and contained 3% DMFA at a final concentration of drug at 300 ug ml. Appropriate solvent controls and empty liposomes were also included in each experiment. […]

[2] = compared with partricin; cited from earlier work

| Molecule | Aqueous solubility (in words) [1] | Inhibition of HTLV-III/LAV replication (in words) (HTLV-III/LAV) | also measured |
| --- | --- | --- | --- |
| C[C@@H]1[C@H](O)[C@@H](C)/C=C/C=C/C=C/C=C/C=C/C=C/C=C/[C@H](O[C@@H]2O[C@H](C)[C@@H](O)[C@H](N)[C@@H]2O)C[C@@H]2O[C@](O)(C[C@@H](O)C[C@@H](O)[C@H](O)CC[C@@H](O)C[C@@H](O)CC(=O)O[C@H]1C)C[C@H](O)[C@H]2C(=O)O [Amphotericin B] | insoluble in water | inhibited | – |
| C[C@@H]1[C@H](O)[C@@H](C)/C=C/C=C/CC/C=C/C=C/C=C/C=C/C(O[C@H]2O[C@H](C)[C@@H](O)[C@H](N)[C@@H]2O)CC2O[C@](O)(CC(O)C(O)CCC(O)CC(O)CC(O)CC(=O)O[C@H]1C)CC(O)C2C(=O)O (some centres unmarked) [Nystatin] | aqueous insolubility | – | – |
| CCCCCCCCCCCCOS(=O)(=O)[O-].[Na+] [SLS, sodium lauryl sulphate] | – | – | Share of F-SPA-222 RBC toxicity associated with SLS (human red blood cells): Fifty percent |
| COC(=O)[C@H]1[C@@H]2C[C@@H](O[C@@H]3O[C@H](C)[C@@H](O)[C@H](N)[C@@H]3O)/C=C/C=C/C=C/C=C/C=C/C=C/C=C/[C@H](C)[C@@H](O)[C@@H](C)[C@H](C)OC(=O)C[C@H](O)C[C@H](O)CC[C@@H](O)[C@H](O)C[C@H](O)C[C@](O)(C[C@@H]1O)O2 [amphotericin B methyl ester ascorbate] | – | inhibited | – |
| Mepartricin | low aqueous solubility | – | Aqueous solubility (in words) ([1]; listed as mepartricin): substantially water-insoluble; Toxicity to animals relative to partricin (in words) [2]: much less toxic to animals than partricin |
